Assay results from patent US11352330B2, “Phenoxymethyl derivatives” (Hoffmann-La Roche Inc., priority 2015, dated 2022).

Molecular target: human ATX (Homo sapiens (Human), UniProt Q13822)
Test: Human ATX enzyme inhibition assay (fluorescence quenching, MR121 substrate)
Format: biochemical
Details: human His-tagged ATX 30 nM, MR121 substrate 1 μM, 30° C.
Method: Human ATX Enzyme Inhibition Assay
ATX inhibition was measured by a fluorescence quenching assay using a specifically labeled substrate analogue (MR121 substrate). To obtain this MR121 substrate, BOC and TBS protected 6-amino-hexanoic acid (R)-3-({2-[3-(2-{2-[2-(2-amino-ethoxy)-ethoxy]-ethoxy}-ethoxy)-propionylamino]-ethoxy}-hydroxy-phosphoryloxy)-2-hydroxy-propyl ester (Ferguson et al., Org Lett 2006, 8 (10), 2023) was labeled with MR121 fluorophore (CAS 185308-24-1, 1-(3-carboxypropyl)-11-ethyl-1,2,3,4,8,9,10,11-octahydro-dipyrido[3,2-b:2′,3′-i]phenoxazin-13-ium) on the free amine of the ethanolamine side and then, after deprotection, subsequently with tryptophan on the side of the aminohexanoic acid.
Assay working solutions were made as follows:
Assay buffer (50 mM Tris-HCl, 140 mM NaCl, 5 mM KCl, 1 mM CaCl2, 1 mM MgCl2, 0.01% Triton-X-100, pH 8.0;
ATX solution: ATX (human His-tagged) stock solution (1.08 mg/mL in 20 mM bicine, pH 8.5, 0.15 M NaCl, 10% glycerol, 0.3% CHAPS, 0.02% NaN3), diluted to 1.4-2.5× final concentration in assay buffer;
MR121 substrate solution: MR121 substrate stock solution (800 μM MR121 substrate in DMSO), diluted to 2-5× final concentration in assay buffer.
Test compounds (10 mM stock in DMSO, 8 μL) were obtained in 384 well sample plates (Corning Costar #3655) and diluted with 8 μL DMSO. Row-wise serial dilutions were made by transferring 8 μL cpd solution to the next row up to row O. The compound and control solutions were mixed five times and 2 μL were transferred to 384 well assay plates (Corning Costar #3702). Then, 15 μL of 41.7 nM ATX solution was added (30 nM final concentration), mixed five times and then incubated for 15 minutes at 30° C. 10 μL of MR121 substrate solution was added (1 μM final concentration), mixed 30 times and then incubated for 15 minutes at 30° C.

Structure (SMILES) | IC50
Cc1cc(OCc2n[nH]c(=O)n2C)c(-c2cccc(C(=O)N3CCCCC3)c2)cc1Cl [Example B8] | 10 nM
Cn1c(COc2cc(Cl)c(C#N)cc2-c2cccc(F)c2F)n[nH]c1=O [Example B91] | 4 nM
CC(C)(C)c1cc(Cl)c(F)cc1OCc1n[nH]c2nc(NCCO)ccc12 [Example D11] | 4.5 nM
N#Cc1cc(-c2cc(C(=O)N3CCCC3)ccc2F)c(OCc2n[nH]c3ncccc23)cc1Cl [Example D43] | 7 nM
Cc1cc(OCc2n[nH]c3ncccc23)c(-c2cc(C(=O)N3CCCC3)ccc2F)cc1Cl [Example D42] | 6 nM
Cc1cc(OCc2n[nH]c(=O)n2C)c(-c2cccc(Cl)c2)cc1Cl [Example B3] | 1 nM
N#Cc1cc(-c2cc(OC(F)(F)F)ccc2F)c(OCc2n[nH]c3ncccc23)cc1Cl [Example D55] | 3 nM
Cc1cc(OCc2n[nH]c3cnccc23)c(-c2cc(C(=O)N3CCN(C)C(=O)C3)ccc2F)cc1Cl [Example D44, 4-[3-[5-Chloro-4-methyl-2-(1H-pyrazolo[3,4-c]pyridin-3-ylmethoxy)phenyl]-4-fluorobenzoyl]-1-methylpiperazin-2-one] | 9 nM
N#Cc1cc(-c2cc(OC3CC3)ccc2F)c(OCc2ccc(=O)[nH]n2)cc1Cl [Example C14] | 5 nM
Cc1cc(OCc2n[nH]c3ccccc23)c(-c2cc(C(=O)N3CCN(C)C(=O)C3)ccc2F)cc1Cl [Example D41] | 7 nM
CCOc1ccc(F)c(-c2cc(Cl)c(C)cc2OCc2n[nH]c(=O)n2C)c1 [Example B55] | 9 nM
Cc1cc(OCc2n[nH]c(=O)n2C)c(-c2cccc(C(=O)N3CCOCC3)c2)cc1Cl [Example B10] | 23 nM
Cc1cc(OCc2n[nH]c(=O)n2C)c(-c2cc(C(=O)N3CCCC3)ccc2F)cc1Cl [Example B62] | 9 nM
Cc1cc(OCc2n[nH]c(=O)n2C)c(-c2cc(CN3CCOC3=O)ccc2F)cc1Cl [Example B82] | 8 nM
Cc1cc(OCc2n[nH]c3ncccc23)c(-c2cccc(C(=O)NCCO)c2)cc1Cl [Example D19] | 35 nM
Cc1cc(OCc2n[nH]c3nc(NCCO)ncc23)c(C(C)(C)C)cc1Cl [Example D30] | 9 nM
Cc1cc(OCc2n[nH]c3nc(N(C)CCO)ccc23)c(C(C)(C)C)cc1Cl [Example D8, 2-[[3-[(2-tert-Butyl-4-chloro-5-methylphenoxy)methyl]-1H-pyrazolo[3,4-b]pyridin-6-yl]-methylamino]ethanol] | 6 nM
CC(C)(C)c1cc(S(C)(=O)=O)ccc1OCc1n[nH]c2ncccc12 [Example D45] | 23 nM
Cc1cc(OCc2ccc(=O)[nH]n2)c(C2CCCCC2)cc1Cl [Example C6, 3-[(4-chloro-2-cyclohexyl-5-methylphenoxy)methyl]-1H-pyridazin-6-one] | 7 nM
Cc1cc(OCc2ccc(=O)[nH]n2)c(C2CCOCC2)cc1Cl [Example C7, 3-[[4-chloro-5-methyl-2-(oxan-4-yl)phenoxy]methyl]-1H-pyridazin-6-one] | 22 nM
Cc1cc(OCc2n[nH]c(=O)n2C)c(C(C)C)cc1Cl [Example A28] | 5 nM
Cc1cc(OCc2n[nH]c(=O)n2C)c(-c2cccc(C(N)=O)c2)cc1Cl [Example B11] | 166 nM
Cn1c(COc2cc(Cl)c(C#N)cc2-c2ccccc2)n[nH]c1=O [Example B31] | 43 nM
Cc1cc(OCc2n[nH]c3cccnc23)c(-c2cccc(C(=O)N(C)C)c2)cc1Cl [Example D24] | 99 nM

Structure (SMILES) | IC50
COc1cccc(-c2cc(Cl)c(C)cc2OCc2n[nH]c(=O)n2C)c1F [Example B90] | 7 nM
Cn1c(COc2cc(S(C)(=O)=O)c(Cl)cc2C2CC2)n[nH]c1=O [Example A14] | 1890 nM
COC(=O)c1cc(COc2cc(C)c(Cl)cc2C(C)(C)C)n[nH]1 [Example F3, Methyl 3-((2-(tert-butyl)-4-chloro-5-methylphenoxy)methyl)-1H-pyrazole-5-carboxylate] | 10 nM
Cc1nc2cc(OCc3n[nH]c(=O)n3C)c(C3CC3)cc2s1 [Example A30] | 9 nM
Cc1cc(OCc2n[nH]c3nc(NCCO)ccc23)c(C(C)(C)C)cc1Cl [Example D7, 2-[[3-[(2-tert-Buty-4-chloro-&-methylphenoxy)methyl]-1H-pyrazolo[3,4-b]pyridin-6-yl]amino]ethanol] | 12 nM
Cc1cc(C(C)(C)C)c(OCc2n[nH]c(=O)n2C)cc1C#N [Example A17] | 35 nM
Cc1cc(OCc2n[nH]c3nc(OCC(O)CO)ncc23)c(C(C)(C)C)cc1C#N (stereo not drawn) [Example D37, 5-tert-Butyl-4-[[6-(2,3-dihydroxypropoxy)-1H-pyrazolo[3,4-d]pyrimidin-3-yl]methoxy]-2-methylbenzonitrile] | 6 nM
COCCN(C)C(=O)c1ccc(F)c(-c2cc(Cl)c(C)cc2OCc2n[nH]c3ncccc23)c1 [Example D40] | 6 nM
Cc1cc(OCc2n[nH]c(=O)n2C)c(-c2cccc(C(=O)N(C)C)c2)cc1Cl [Example B12] | 22 nM
Cn1c(COc2ccc(N3CCOCC3)cc2C(C)(C)C)n[nH]c1=O [Example A8] | 1600 nM
Cn1c(COc2cc(Cl)c(C#N)cc2-c2cc(OCC(F)(F)F)ccc2F)n[nH]c1=O [Example B98, 2-chloro-5-[2-fluoro-5-(2,2,2-trifluoroethoxy)phenyl]-4-[(4-methyl-5-oxo-1H-1,2,4-triazol-3-yl)methoxy]benzonitrile] | 9 nM
Cc1cc(OCc2n[nH]c(=O)n2C)c(-c2cccc(C(=O)N(C)CCO)c2)cc1Cl [Example B45, 3-[5-Chloro-4-methyl-2-[(4-methyl-5-oxo-1H-1,2,4-triazol-3-yl)methoxy]phenyl]-N-(2-hydroxyethyl)-N-methylbenzamide] | 29 nM
Cc1cc(OCc2ccc(=O)[nH]n2)c(-c2cccnc2O)cc1Cl [Example C11] | 5980 nM
COCCN(C)C(=O)c1ccc(F)c(-c2cc(Cl)c(C)cc2OCc2n[nH]c3cnccc23)c1 [Example D46] | 4 nM
Cc1cc(OCc2n[nH]c(=O)n2C)c(-c2cccnc2Cl)cc1Cl [Example B18] | 52 nM
Cc1cc(OCc2n[nH]c(=O)n2C)c(-c2cnco2)cc1Cl [Example B26] | 495 nM
Cc1cc(OCc2n[nH]c(=O)n2C)c(-c2cc(OCC3CCOC3)ccc2F)cc1Cl (stereo not drawn) [Example B67] | 6 nM
Cc1cc(OCc2n[nH]c3nc(N4CC(O)C4)ncc23)c(C(C)(C)C)cc1Cl [Example D29] | 10 nM
Cn1c(COc2cc(Cl)c(C#N)cc2-c2cc(F)ccc2F)n[nH]c1=O [Example B94] | 5 nM
Cc1cc(OCc2ccc(=O)[nH]n2)c(C(C)C)cc1Cl [Example C1, 3-[(4-Chloro-5-methyl-2-propan-2-ylphenoxy)methyl]-1H-pyridazin-6-one] | 19 nM
Cn1c(COc2cc(C#N)ccc2C(C)(C)C)n[nH]c1=O [Example A24] | 91 nM
Cc1nc(-c2cccc(-c3cc(C#N)c(Cl)cc3OCc3n[nH]c(=O)n3C)c2)no1 [Example B35] | 81 nM
CNC(=O)c1cccc(-c2cc(C#N)c(Cl)cc2OCc2n[nH]c(=O)n2C)c1 [Example B33] | 115 nM
COc1ncccc1-c1cc(Cl)c(C)cc1OCc1n[nH]c2c1CCNC2 [Example E7, 3-((4-Chloro-2-(2-methoxypyridin-3-yl)-5-methylphenoxy)methyl)-4,5,6,7-tetrahydro-1H-pyrazolo[3,4-c]pyridine] | 202 nM
